The subject of experiment [1] is HTM cells grown on SU-8 scaffolds (morphology, F-actin cytoskeleton). Nature of the experiment: SEM and confocal imaging of HTM cells on SU-8 scaffolds after Lat-B perfusion. Format: cell-based, human. The conditions noted are these: FIG. 15F. An excerpt:
11. Follow up cell characterization studies may be conducted as desired with standard techniques well known to those of skill in the art. For this invention, samples were fixed and stained for SEM and confocal image analysis as described herein (FIGS. 11-15).
Cells were characterized using standard procedures for SEM, Immunocytochemistry and confocal imaging, well known to those of skill in the art.
(§1) A flow system apparatus for the controlled flow pressure measurement was constructed as shown in FIG. 2C was contained in a perfusion chamber housing comprised of at least a perfusion chamber with an integrated pressure transducer (FIG. 2C; 206), the sterilized, HTM biocompatible coated, SU-8 3-D micro- and nanostructured scaffold with or without HTM cells placed within a cell-culture insert (FIG. 2A; 202) and were secured in the scaffold holder, comprising at least a bottom element adapted for effluent (FIG. 2A; 203), a top element adapted for media entry (FIG. 2A; 201) inside the perfusion chamber (FIG. 2c). This flow system allowed for simultaneous control of the flow and measurement of the transmembrane pressure, permitting the exploration of the outflow characteristics of the in vitro HTM model. […] Back pressures were continuously monitored with a pressure transducer (FIG. 2C; 206) and recorded. […]

The subject of experiment [2] is bioengineered HTM (primary HTM cells on gelatin-coated 12 μm SU-8 scaffolds). In words: Perfusion of bioengineered HTM on SU-8 scaffold: transmembrane pressure at constant flow. It is filed as cell-based, human.
From the text: 1. The flow system apparatus (FIG. 2) incorporating the principles and features of this invention is contained within a controlled environment, which herein comprises of a stand-alone perfusion chamber, with a cell growth medium entry system (FIG. 2c; 204) and a screening agent (for example a glaucoma drug) entry system (FIG. 2c; 204) as shown in FIG. 2c. The system allows for the screening agent to be added to the perfusate at a pre-determined concentration for a pre-determined number of hours. […]
8. […] Back pressures were continuously monitored with a pressure transducer and recorded. […]
as §1, with “2c).” for “2c). This flow system allowed for simultaneous control of the flow and measurement of the transmembrane pressure, permitting the exploration of the outflow characteristics of the in vitro HTM model.”

With `C/C1=C/C(=O)O[C@@H]2C[C@@H](CC[C@H](C)/C=C\CC1)O[C@@](O)([C@@H]1CSC(=O)N1)C2` [Lat-B, latruncunlin-B], in experiment [1], the “F-actin cytoskeleton (confocal)” value was “elongated actin fibers were disturbed and became punctate actin bundles”. Besides, the “perfusion pressure of the artificial trabecular meshwork after Lat-B treatment” value in experiment [2] (FIG. 16, indicates decreased flow resistance) is given as “decreased dramatically”. In addition, the “decrease of the resistance to flow” value in experiment [2] (Lat-B added to the perfusate at 2 μM for 4 hours, constant flow, 34° C., N=8, p<0.05 (FIG. 16)) was found to be 92±6%.

For the origin of these results see patent US9506907B2, “Bioengineered human trabecular meshwork for biological applications” (The Research Foundation of State University of New York, priority 2012, dated 2016).
